Test results reported in ChEMBL document CHEMBL4418487, “Max binders as myc modulators and uses thereof” (2017).
Each block holds one compound with its values, some of them ahead of it. Activity calls are given as the source filed them. The rule behind the calls is not given here.

What was measured:
[1] = target: Protein max (Homo sapiens) (UniProt P61244); test: Binding affinity to Max in human P493-6 cells at 5 to 10 uM using AlexaFluor-tagged compound by Western blotting analysis based target engagement assay; assay type: cell-based
[2] = target: Protein max (Homo sapiens) (UniProt P61244); test: Binding affinity to Max in human P493-6 cells using Biotin with streptavidin enrichment by Western blotting analysis based target engagement assay; assay type: cell-based
[3] = target: Protein max (Homo sapiens) (UniProt P61244); test: Binding affinity to Max in human P493-6 cells at 5 to 10 uM using AlexaFluor-tagged compound in presence of 20 uM soluble KI-MS2-008 by Western blotting analysis based target engagement assay; assay type: cell-based
[4] = Cytotoxicity against human P493-6 cells with where Myc is in OFF- condition assessed as reduction in cell viability incubated for 3 days by CellTiter-Glo assay; assay type: cell-based
[5] = Cytotoxicity against human P493-6 cells with where Myc is in ON- condition assessed as reduction in cell viability incubated for 3 days by CellTiter-Glo assay; assay type: functional, cell-based
[6] = target: Protein max (Homo sapiens) (UniProt P61244); test: Binding affinity to Max in human P493-6 cells assessed as effect on Max interactome by measuring perturbation in Atg16l1 level at […] incubated for 30 mins by immunoprecipitation based assay; assay type: cell-based
[7] = Hepatic toxicity in healthy mouse assessed as induction of liver damage at 0.731 mg/kg, po dosed daily using cyclodextrin vehicle for 7 days by H and E staining histological analysis; assay type: organism-based; details: in vivo, 168 h
[8] = target: Protein max (Homo sapiens) (UniProt P61244); test: Binding affinity to Max in human P493-6 cells at […] incubated for 30 mins by immunoprecipitation based assay; assay type: cell-based
[9] = Drug level in mouse plasma at 20 uM, iv by LC/MS analysis; assay type: ADME, organism-based; details: in vivo
[10] = Toxicity in healthy mouse assessed as effect on body weight at 0.731 mg/kg, po dosed daily using cyclodextrin vehicle for 7 days measured on each day; assay type: organism-based; details: in vivo, 168 h
Homo sapiens [11] = test: Antitumor activity against Luc-labeled and MYC-driven human T-ALL 4188 cells xenografted in immune-compromised NSG mouse assessed as reduction in tumor volume at 10 mg/ml dosed in corn oil every other day during day 2 to 16 after tumor implantation; assay type: functional, organism-based
c-Myc/Max (Homo sapiens) = c-Myc/Max (Homo sapiens) (UniProt P01106+P61244); test: Inhibition of c-Myc/Max heterodimer interaction in human P493-6 cells by electrophoretic mobility shift assay; assay type: cell-based
[12] = target: Protein max (Homo sapiens) (UniProt P61244); test: Induction of recombinant human Max homodimer stabilization at 10 uM pre-incubated for 1 hr with protein and measured after 18 hrs
[13] = target: Protein max (Homo sapiens) (UniProt P61244); test: Induction of Max homodimer stabilization in human P493-6 cells assessed as increase in Max homodimer binding to DNA by electrophoretic mobility shift assay; assay type: cell-based
Homo sapiens [14] = test: Antitumor activity against Luc-labeled and MYC-driven human T-ALL 4188 cells xenografted in immune-compromised NSG mouse assessed as reduction in tumor volume using tumor cells pre-treated with 20 uM compound for 24 hrs; assay type: functional
[15] = target: Protein max (Homo sapiens) (UniProt P61244); test: Binding affinity to Max in human P493-6 cells assessed as decrease in Myc transcript levels by qPCR analysis; assay type: cell-based
[16] = Toxicity in healthy mouse assessed as effect on liver at 0.364 mg/kg, po dosed daily using cyclodextrin vehicle for 7 days by H and E staining histological analysis; assay type: organism-based; details: in vivo, 168 h
[17] = target: Protein max (Homo sapiens) (UniProt P61244); test: Binding affinity to Max in human P493-6 cells assessed as effect on Max interactome by measuring perturbation in Yaf2 level at […] incubated for 30 mins by immunoprecipitation based assay; assay type: cell-based
[18] = Toxicity in healthy mouse assessed as effect on behavior at 0.731 mg/kg, po dosed daily using cyclodextrin vehicle for 7 days measured on each day; assay type: organism-based; details: in vivo, 168 h
[19] = Drug level in mouse plasma at 100 to 200 uM, po dosed using cyclodextrin vehicle by LC/MS analysis; assay type: ADME, organism-based; details: in vivo
Homo sapiens [20] = test: Antitumor activity against Luc-labeled and MYC-driven human T-ALL 4188 cells xenografted in immune-compromised NSG mouse assessed as reduction in tumor volume at 20 uM, iv measured during 2 to 12 days after tumor implantation; assay type: functional, organism-based
[21] = target: Protein max (Homo sapiens) (UniProt P61244); test: Binding affinity to Max in human P493-6 cells assessed as induction of perturbation in transcriptional programs after 45 mins; assay type: cell-based
[22] = target: Protein max (Homo sapiens) (UniProt P61244); test: Binding affinity to Max in human P493-6 cells assessed as decrease in Myc protein levels at 10 uM in presence of 10 uM proteasome inhibitor MG132; assay type: cell-based
[23] = target: Protein max (Homo sapiens) (UniProt P61244); test: Binding affinity to Max in human P493-6 cells assessed as effect on Max interactome by measuring perturbation in Nacc2 level at […] incubated for 30 mins by immunoprecipitation based assay; assay type: cell-based
[24] = Renal toxicity in healthy mouse assessed as induction of kidney damage at 0.731 mg/kg, po dosed daily using cyclodextrin vehicle for 7 days by H and E staining histological analysis; assay type: organism-based; details: in vivo, 168 h
[25] = Renal toxicity in healthy mouse assessed as induction of kidney damage at 0.364 mg/kg, po dosed daily using cyclodextrin vehicle for 7 days by H and E staining histological analysis; assay type: organism-based; details: in vivo, 168 h
[26] = Drug level in plasma (unknown origin) at 0.2 to 10 uM by serial dilution-lowest detection limit test; assay type: ADME, cell-free
[27] = Retention time of the compound by LC/MS analysis; assay type: physicochemical
[28] = target: Myc proto-oncogene protein (Homo sapiens) (UniProt P01106); test: Binding affinity to c-Myc in human P493-6 cells at […] incubated for 30 mins by immunoprecipitation based assay; assay type: cell-based
[29] = Toxicity in healthy mouse assessed as effect on body weight at 0.364 mg/kg, po dosed daily using cyclodextrin vehicle for 7 days measured on each day; assay type: organism-based; details: in vivo, 168 h
[30] = target: Protein max (Homo sapiens) (UniProt P61244); test: Binding affinity to Max in human P493-6 cells assessed as effect on Max interactome by measuring perturbation in Myc level at […] incubated for 30 mins by immunoprecipitation based assay; assay type: cell-based
[31] = target: Protein max (Homo sapiens) (UniProt P61244); test: Binding affinity to Max in human P493-6 cells assessed as effect on Max interactome by measuring perturbation in Mxd4 level at […] incubated for 30 mins by immunoprecipitation based assay; assay type: cell-based
[32] = Drug level in mouse plasma at 20 uM, po by LC/MS analysis; assay type: ADME, organism-based; details: in vivo
[33] = target: Protein max (Homo sapiens) (UniProt P61244); test: Binding affinity to Max in human P493-6 cells assessed as effect on Max interactome by measuring perturbation in Rcor1 level at […] incubated for 30 mins by immunoprecipitation based assay; assay type: cell-based
[34] = target: Protein max (Homo sapiens) (UniProt P61244); test: Binding affinity to Max in human P493-6 cells assessed as decrease in Myc protein levels; assay type: cell-based
[35] = Toxicity in healthy mouse assessed as effect on behavior at 0.364 mg/kg, po dosed daily using cyclodextrin vehicle for 7 days measured on each day; assay type: organism-based; details: in vivo, 168 h
[36] = Toxicity in healthy mouse assessed as effect on liver at 0.731 mg/kg, po dosed daily using cyclodextrin vehicle for 7 days by H and E staining histological analysis; assay type: organism-based; details: in vivo, 168 h
CA46 = test: Cytotoxicity against human CA46 cells assessed as reduction in cell viability incubated for 3 days by CellTiter-Glo assay; assay type: functional, cell-based
NCI-H1963 = test: Cytotoxicity against human NCI-H1963 cells assessed as reduction in cell viability incubated for 3 days by CellTiter-Glo assay; assay type: functional, cell-based
[37] = target: Protein max (Homo sapiens) (UniProt P61244); test: Binding affinity to Max in human P493-6 cells using Bio-MS2 by Western blotting analysis based pull down assay; assay type: cell-based
Homo sapiens [38] = species: Homo sapiens; test: Cytotoxicity against human GBM4 cells assessed as reduction in cell viability incubated for 4 days by CellTiter-Glo assay; assay type: functional, cell-based
ST486 = test: Cytotoxicity against human ST486 cells assessed as reduction in cell viability incubated for 3 days by CellTiter-Glo assay; assay type: functional, cell-based
[39] = target: Myc proto-oncogene protein (Homo sapiens) (UniProt P01106); test: Binding affinity to MYC in human P493-6 cells using 2 mg protein by immunoblotting based pull down assay; assay type: cell-based
[40] = target: Protein max (Homo sapiens) (UniProt P61244); test: Binding affinity to Max in human P493-6 cells using 2 mg protein by immunoblotting based pull down assay; assay type: cell-based
Astrocyte = test: Cytotoxicity against normal human astrocytes assessed as reduction in cell viability incubated for 4 days by CellTiter-Glo assay; assay type: cell-based; details: 96 h

Chain of Protein max (Homo sapiens) (P61244 whole entry): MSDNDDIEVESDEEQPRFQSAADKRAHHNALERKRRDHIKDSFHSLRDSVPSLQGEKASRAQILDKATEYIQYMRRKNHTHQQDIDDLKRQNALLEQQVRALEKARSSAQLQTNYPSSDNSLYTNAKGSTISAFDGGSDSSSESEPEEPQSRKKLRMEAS
Chain of Myc proto-oncogene protein (Homo sapiens) (P01106 whole entry): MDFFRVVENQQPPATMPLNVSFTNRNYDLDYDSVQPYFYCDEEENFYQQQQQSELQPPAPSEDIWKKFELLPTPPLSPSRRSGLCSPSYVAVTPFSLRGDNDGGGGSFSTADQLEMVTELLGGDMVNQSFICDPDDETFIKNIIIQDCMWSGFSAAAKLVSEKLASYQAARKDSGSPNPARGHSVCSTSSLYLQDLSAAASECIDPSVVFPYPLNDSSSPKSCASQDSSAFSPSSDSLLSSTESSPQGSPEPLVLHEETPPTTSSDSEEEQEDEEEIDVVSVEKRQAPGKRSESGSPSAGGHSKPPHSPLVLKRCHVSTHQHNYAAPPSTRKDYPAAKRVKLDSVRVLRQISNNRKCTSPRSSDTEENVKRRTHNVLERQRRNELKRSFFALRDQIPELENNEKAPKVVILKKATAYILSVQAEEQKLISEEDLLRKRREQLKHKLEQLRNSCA

Activity [1]: Active
Activity [2]: Active
Activity [3]: inactive
SMILES: CCN(CC(=O)NCCNC(=O)CN1Cc2ccccc2[C@@H]2OC(c3ccccc3)=N[C@]2(Cc2ccccc2)C1=O)C(=O)CCC1(C)N=N1

SMILES: CC(=O)N1Cc2ccccc2[C@@H]2OC(c3ccccc3)=N[C@]2(Cc2ccccc2)C1=O
IC50 ([4]; Homo sapiens, P493-6, 72 h): > 50 µM
IC50 ([5]; Homo sapiens, P493-6, 72 h): 19.3 µM

Activity [6]: Active
Activity [8]: Active
Drug uptake [9]: Active
inhibition (c-Myc/Max (Homo sapiens)): inactive
Activity [12]: Active
Activity [13]: Dose-dependent effect
Activity [15]: Active
Activity [17]: Active
Drug uptake [19]: Active
Activity [21]: Active
Activity [22]: inactive
Activity [23]: Active
Drug uptake [26]: Active
Retention_time [27]: 9 min
Activity [28]: Active
Activity [30]: Active
Activity [31]: Active
Drug uptake [32]: Not Active
Activity [33]: Active
Activity [34]: Dose-dependent effect
SMILES: O=C1N(CCS(=O)(=O)c2ccccc2)Cc2ccccc2[C@@H]2OC(c3ccccc3)=N[C@]12Cc1ccccc1
Activity [7]: Non-Toxic
Activity [10]: Non-Toxic
Activity (Homo sapiens [11]): Active
Activity (Homo sapiens [14]): Active
IC50 ([4]; Homo sapiens, P493-6, 72 h): > 50 µM
Activity [16]: Non-Toxic
Activity [18]: Non-Toxic
Activity (Homo sapiens [20]): Active
Activity [24]: Non-Toxic
Activity [25]: Non-Toxic
Activity [29]: Non-Toxic
Activity [35]: Non-Toxic
Activity [36]: Non-Toxic

SMILES: O=C(c1ccccc1)N1Cc2ccccc2[C@@H]2OC(c3ccccc3)=N[C@]2(Cc2ccccc2)C1=O
IC50 ([4]; Homo sapiens, P493-6, 72 h): > 50 µM
IC50 ([5]; Homo sapiens, P493-6, 72 h): > 50 µM

SMILES: O=C1NCc2ccccc2[C@@H]2OC(c3ccccc3)=N[C@]12Cc1ccccc1
IC50 ([4]; Homo sapiens, P493-6, 72 h): > 50 µM

Activity [37]: Active
SMILES: O=C1N(CCS(=O)(=O)c2ccccc2)Cc2ccccc2[C@@H]2OC(c3ccc(OCCCO)cc3)=N[C@]12Cc1ccccc1 (racemic) [listing 1 of 2 here]
Activity (CA46): Active
Activity (NCI-H1963): Active
Activity (Homo sapiens [38]): Active
Activity (ST486): Active

SMILES: CCOC(=O)CN1Cc2ccccc2[C@@H]2OC(c3ccccc3)=N[C@]2(Cc2ccccc2)C1=O
IC50 ([4]; Homo sapiens, P493-6, 72 h): > 50 µM

Activity [39]: Active
Activity [40]: Active
SMILES: NCCOCCOCCNC(=O)CN1Cc2ccccc2[C@@H]2OC(c3ccccc3)=N[C@]2(Cc2ccccc2)C1=O

SMILES: O=C(O)CN1Cc2ccccc2[C@@H]2OC(c3ccccc3)=N[C@]2(Cc2ccccc2)C1=O
IC50 ([4]; Homo sapiens, P493-6, 72 h): > 50 µM

SMILES: O=C1N(CCS(=O)(=O)c2ccccc2)Cc2ccccc2[C@@H]2OC(c3ccc(OCCCO)cc3)=N[C@]12Cc1ccccc1
IC50 [4]: > 50 µM

SMILES: O=C1N(CCS(=O)(=O)c2ccccc2)Cc2cc(Cl)ccc2[C@@H]2OC(c3ccccc3)=N[C@]12Cc1ccccc1
IC50 ([4]; Homo sapiens, P493-6, 72 h): > 50 µM
IC50 ([5]; Homo sapiens, P493-6, 72 h): 25.8 µM

SMILES: O=C1N(CCS(=O)(=O)c2ccccc2)Cc2ccccc2[C@@H]2OC(c3ccc(OCCCO)cc3)=N[C@]12Cc1ccccc1 (racemic) [listing 2 of 2 here]
IC50 ([4]; Homo sapiens, P493-6, 72 h): 50 to 58.1 µM
IC50 [5]: 6.8 to 14.5 µM
Activity (Astrocyte): Non-Toxic

SMILES: C=CCN1Cc2ccccc2[C@@H]2OC(c3ccccc3)=N[C@]2(Cc2ccccc2)C1=O
IC50 ([4]; Homo sapiens, P493-6, 72 h): > 50 µM
